{"source": "patent US6338963B1", "about": "“Use of carbon monoxide dependent guanylyl cyclase modifiers to stimulate neuritogenesis” (NeoTherapeutics, Inc., priority 1994, dated 2002)", "test_system": "PC12 cells", "experiment": "Neuritogenesis in PC12 cells", "format": "cell-based, rat", "conditions": "for effect of inhibitor on NGF neuritogenic activity / effect on neuritogenic properties of the NO donors: PC12 cells with NGF; for enhancement of NGF-induced neurite outgrowth: in the presence of NGF, 48 hours; for effect of inhibitor on neuritogenic effects of guanosine: PC12 cells with guanosine and NGF; for neurite outgrowth in the absence of NGF: compound alone", "protocol": "Much of the work performed in the characterization of the compounds of the present invention involved the use of PC12 cells. These cells are derived from a rat pheochromocytoma and when grown in the presence of NGF, extend neurites, cease cell division and assume many characteristics of sympathetic neurons. When cultured in the absence of nerve growth factor (NGF), few PC12 cells have neurites greater than one cell diameter. Addition of saturating concentrations of NGF for 48 hours stimulates neurite outgrowth in about 20-35% of the cells. Because they constitute a homogeneous population of neuronal-like cells, without contaminating astroglia type cells, it is possible to study the direct effects of the purine based compounds on neurite outgrowth in these cells.\nCells cultured in RPMI 1640 with 1.5% horse serum and 1.5% fetal bovine serum were re-plated onto poly-ornithine coated 24-well culture plates (2.5×10^4 cells per well). AIT-082 and NGF were added to the various cultures immediately upon plating. After 48 hours, medium was removed and the cells irnmediately fixed in 10% formalin and PBS for 10 minutes. Cells and neurites were counted within 2 days of fixation.\nA neurite was defined as a process extending from the cell at least 1 cell body diameter in length and displaying a growth cone at its tip. For each treatment, 2 representative microscope fields were counted from each of 6 sister cultures receiving identical treatments. The total number of cells counted per well (approximately 100 cells) and the total number of cells containing neurites in each well were used to determine fraction of neurite-bearing cells. The mean values (±SEM) were then determined for each of the treatments. To facilitate comparison neurite outgrowth was expressed relative to the proportion of cells bearing neurites in the presence of NGF alone (NGF=100%). The effects of compounds with and without NGF were compared by analysis of variance (ANOVA) followed by Tukey's test for significance.\nThe results are shown in FIG. 3 where the curve represents different levels of AIT-082 plus saturating concentrations (40 ng/ml) NGF. The center horizontal line represents control values for cells cultured in the presence of 40 ng/ml NGF alone. Upper and lower horizontal lines are indicative of confidence limits of NGF alone as determined using standard statistical methods.", "data": [{"compound": "CCOC(=O)CCn1cnc2c(N)ncnc21", "note": "[AIT-0026, 3-(6-amino-9H-purin-9-yl)propionic acid, ethyl ester]", "values": [{"measurement": "modification of neural activity", "result": "failed to modify neural activity"}]}, {"compound": "Methemoglobin: captures and removes nitric oxide (NO) and carbon monoxide (CO) from the culture media", "values": [{"measurement": "effect of inhibitor on neuritogenic action of AIT-082", "setting": "PC12 cells", "result": "inhibited the action of AIT-082"}, {"measurement": "effect of inhibitor on NGF neuritogenic activity", "result": "no effect on NGF activity"}, {"measurement": "effect on neuritogenic properties of the NO donors", "result": "inhibited"}]}, {"compound": "OC[C@H]1O[C@@H](n2cnc3c(O)ncnc32)[C@H](O)[C@@H]1O", "note": "[inosine]", "values": [{"measurement": "modification of neural activity", "result": "relatively ineffective"}, {"measurement": "stimulation of neuritogenesis and enhancement of NGF-stimulated neuritogenesis", "setting": "PC12 cells", "result": "weakly effective"}, {"measurement": "enhancement of NGF-induced neurite outgrowth", "result": "only slightly enhanced neurite outgrowth"}]}, {"compound": "C=CC1=C(C)c2cc3[n-]c(cc4[n-]c(cc5nc(cc1n2)C(C)=C5C=C)c(C)c4CCC(=O)O)c(CCC(=O)O)c3C.[Zn+2]", "note": "[Zinc protoporphyrin IX]", "values": [{"measurement": "effect of inhibitor on neuritogenic action of AIT-082", "setting": "PC12 cells", "result": "inhibited the action of AIT-082"}, {"measurement": "effect of inhibitor on NGF neuritogenic activity", "result": "no effect on NGF activity"}, {"measurement": "effect of inhibitor on NGF neuritogenic activity", "setting": "listed as ZnPP", "result": "did not affect those of NGF"}, {"measurement": "effect of inhibitor on neuritogenic effects of guanosine", "result": "abolished the neuritogenic effects of guanosine"}]}, {"compound": "hemoglobin", "values": [{"measurement": "effect of inhibitor on neuritogenic action of AIT-082", "setting": "PC12 cells", "result": "inhibited"}, {"measurement": "effect on neuritogenic properties of the NO donors", "result": "inhibited"}, {"measurement": "effect of inhibitor on neuritogenic effects of guanosine", "result": "inhibited the neuritogenic effects of guanosine"}]}, {"compound": "CCNC(=O)[C@H]1O[C@@H](n2cnc3c(N)ncnc32)[C@H](O)[C@@H]1O", "note": "[NECA, 5′-N-ethylcarboxamidoadenosine]", "values": [{"measurement": "neurite outgrowth in the absence of NGF", "result": "little stimulation of neurite outgrowth"}, {"measurement": "effect on the actions of guanosine", "setting": "in the presence and absence of NGF", "result": "could synergistically enhance the actions of guanosine"}, {"measurement": "enhancement of NGF-induced neurite outgrowth", "result": "also enhanced neuritogenesis, but not to the same extent as guanosine"}]}, {"compound": "Nc1ncnc2c1ncn2[C@@H]1O[C@H](COP(=O)(O)OP(=O)(O)OP(=O)(O)O)[C@@H](O)[C@H]1O", "note": "[ATP, adenosine triphosphate]", "values": [{"measurement": "neurite outgrowth in the absence of NGF", "result": "did not enhance neuritogenesis"}, {"measurement": "enhancement of NGF-induced neurite outgrowth", "result": "did not enhance neuritogenesis"}]}, {"compound": "O=c1[nH]cnc2nc[nH]c12", "note": "[hypoxanthine]", "values": [{"measurement": "modification of neural activity", "result": "relatively ineffective"}, {"measurement": "stimulation of neuritogenesis and enhancement of NGF-stimulated neuritogenesis", "setting": "PC12 cells", "result": "weakly effective"}, {"measurement": "enhancement of NGF-induced neurite outgrowth", "result": "the greatest, although still modest, enhancement"}]}, {"compound": "copper protoporphyrin IX [CuPP]", "values": [{"measurement": "effect of inhibitor on neuritogenic effects of guanosine", "result": "did not reduce the ability of guanosine to enhance NGF-dependent neurite outgrowth"}]}, {"compound": "CCCn1cnc2c1c(=O)n(CCCCC(C)=O)c(=O)n2C", "note": "[propentofylline]", "values": [{"measurement": "modification of neural activity", "result": "failed to modify neural activity"}]}, {"compound": "O=c1[nH]c(=O)c2[nH]cnc2[nH]1", "note": "[xanthine]", "values": [{"measurement": "modification of neural activity", "result": "relatively ineffective"}, {"measurement": "concentration toxic to the cells", "setting": "PC12 cells", "result": 300000, "unit": "µM"}, {"measurement": "enhancement of NGF-induced neurite outgrowth", "result": "only slightly enhanced NGF-induced neurite outgrowth"}]}, {"compound": "Nc1nc2c(ncn2[C@@H]2O[C@H](COP(=O)(O)O)[C@@H](O)[C@H]2O)c(=O)[nH]1", "note": "[GMP, guanosine monophosphate]", "values": [{"measurement": "enhancement of NGF-induced neurite outgrowth", "result": "neither GDP nor GMP were effective alone or with NGF"}]}, {"compound": "O=C1C(Nc2ccccc2)=CC(=O)c2ncccc21", "note": "[LY83583]", "values": [{"measurement": "effect of inhibitor on NGF neuritogenic activity", "result": "the response elicited by NGF was unaffected"}, {"measurement": "effect of inhibitor on neuritogenic effects of guanosine", "result": "inhibited"}]}, {"compound": "Nc1nc2c(ncn2[C@@H]2O[C@H](COP(=O)(O)OP(=O)(O)O)[C@@H](O)[C@H]2O)c(=O)[nH]1", "note": "[GDP, guanosine diphosphate]", "values": [{"measurement": "enhancement of NGF-induced neurite outgrowth", "result": "neither GDP nor GMP were effective alone or with NGF"}]}, {"compound": "O=C(CCn1cnc2c(=O)[nH]cnc21)NCCCN1CCCC1=O", "note": "[AIT-034, 3-(1,6 dihydro-6-oxo-9hpurin-9-yl)-N-(3-(2-oxopyrrolidin-1-yl)propyl) propanamide]", "values": [{"measurement": "modification of neural activity", "result": "failed to modify neural activity"}, {"measurement": "enhancement of NGF-induced neurite outgrowth", "result": "did not enhance NGF-induced neuritogenesis"}]}]}
